Assay results as given in US20260055381A1, “PROTEIN, POLYNUCLEOTIDE, EXPRESSION VECTOR, TRANSFORMANT, PLASMALOGEN-CONTAINING COMPOSITION, AND METHOD FOR PRODUCING PLASMALOGEN” (INSTITUTE OF RHEOLOGICAL FUNCTION OF FOOD CO., LTD., priority 2022, published 2026).

Experiment: Production of plasmalogen in suis plsA-transformed E. coli (phospholipid by HPLC-ELSD, aldehyde after acid hydrolysis)
Settings: in aerobically grown E. coli
Method: After thawing the bacterial cells, the total weight of the cells was measured. After 1 mL of water was added to and mixed with the bacterial cells, 3.75 mL of chloroform/methanol (1:2, v/v) was added thereto, and the resulting mixture was mixed. The mixture was subjected to sonication for 10 minutes, and then left to stand at room temperature for 30 minutes. After adding 1.25 mL chloroform to the mixture, 1.25 mL water was added thereto. After performing centrifugation, the chloroform layer was transferred to a glass tube, and the remaining aqueous layer was subjected to re-extraction with 2 mL of chloroform. The resulting combined chloroform layer was dried under nitrogen gas, and resuspended in hexane/isopropanol (3:2, v/v) to a bacterial cell concentration of 120 mg/mL, followed by filtration through a 0.45-μm filter. After injecting 10 μL of the bacterial cell suspension into high-performance liquid chromatography (HPLC), detection was performed by an evaporative light-scattering detector (ELSD).
Lipid standard solutions with different concentrations were also detected by HPLC-ELSD. A calibration curve was prepared based on the peak area at each concentration, and the amount of phospholipids was calculated from the area ratio of the peak corresponding to phospholipids obtained from the E. coli with a retention time of 10 to 20 minutes. […]

Substance: suis PlsA protein: PlsA protein of 1639 amino acids of SEQ ID NO:2, from B. longum suis subspecies
- plasmalogen synthesis activity: shown to have a plasmalogen synthesis activity
